Measurements published in PMC9786284, “Synthesis and Antiproliferative Effect of Halogenated Coumarin Derivatives” (Molecules, 2022).
Where two headings read alike, the source gives them in different places.

What was measured:
Type in all cases: cell-based
[1] = tested on: B-CPAP thyroid cancer cell line; assay: MTT cell viability assay
Procedure: (§1) The cytotoxic effect of coumarins 2a–k was tested on several cancer and normal cell lines: lung cancer cell line (SK-MES-1), thyroid cancer cell lines (K-1; B-CPAP ant TPC-1), lung fibroblast (MRC-5) and thyroid normal cell line (Nthy-ori-3-1) by MTT (3-[4,5-dimethylthiazol-2-yl]-2,5 diphenyltetrazolium bromide) assay.
(§2) The papillary thyroid carcinoma (PTC)-derived cell lines (TPC-1 and B-CPAP) were kindly provided by Dr. Fusco (Medical School, University Federico II of Naples, Naples, Italy). K-1 PTC-derived cell line and non-tumorigenic thyroid Nthy-ori-3-1 cell line were purchased from Health Protection Agency Culture Collections. The PTC-derived cell lines were maintained in DMEM/F12 (Gibco-BRL. Life Technologies, Milan, Italy)] supplemented with 10% fetal bovine serum (Gibco-BRL) at 37 °C in humidified 5% CO2. SK-MES-1 and MRC-5 were purchased from American Type Culture Collection (ATCC) and were maintained in Mem-E medium, supplemented with 10% fetal bovine serum, 100 units/mL penicillin G, and 100 μg/mL streptomycin (Gibco-BRL) at 37 °C in humidified 5% CO2.
(§3) The effect of test compounds on the viability of cells was detected by MTT assay. The thyroid cells (7.5 × 10^3 cells/mL), SK-MES-1, and MRC-5 (8 × 10^4 cells/mL) were seeded into a 96-well plate and allowed to adhere for 16 h to culture plates before the addition of the compounds.
(§4) Then, compounds were added at different concentrations (0.8–100 μM), and cells were further incubated for 24 h. Cells with no treatment were used as a negative control. After incubation, cells were treated with MTT solution for 3 h at 37 °C. Then, the MTT solution was removed, and 150 µL of DMSO was added to the wells. The absorbances were measured at 570 nm using a TECAN microplate reader (Infinite 200, Tecan, Salzburg, Austria). Viability data were reported as % of control (untreated cells) for each cell line.

MTT cell viability assay = details: human, MTT, 24 h, concentration required to inhibit cell proliferation by 50%, mean ± SD
Procedure: as §1, §2, §3, §4

[2] = tested on: SK-MES-1 lung cancer cell line; assay: MTT cell viability assay
Procedure: as §1, §2, §3, §4

[3] = tested on: TPC-1 thyroid cancer cell line; assay: MTT cell viability assay
Procedure: as §1, §2, §3, §4

[4] = tested on: K-1 thyroid cancer cell line; assay: MTT cell viability assay
Procedure: as §1, §2, §3, §4

[5] = tested on: Nthy-ori-3-1 thyroid normal cell line; assay: MTT cell viability assay
Procedure: as §1, §2, §3, §4

MRC-5 lung fibroblast = assay: MTT cell viability assay
Procedure: as §1, §2, §3, §4

[6] = Homo sapiens, BCPAP, B-CPAP, MTT, 24 h, concentration required to inhibit cell proliferation by 50%, mean ± SD, read-out: CC50
[7] = Nthy-ori-3-1 normal thyroid cells, Nthy-ori-3-1
[8] = Homo sapiens, SK-MES-1, MTT, 24 h, concentration required to inhibit cell proliferation by 50%, mean ± SD, read-out: CC50
[9] = Homo sapiens, TPC1, TPC-1, MTT, 24 h, concentration required to inhibit cell proliferation by 50%, mean ± SD, read-out: CC50
[10] = K-1, MTT, 24 h, concentration required to inhibit cell proliferation by 50%, mean ± SD, read-out: CC50

| Compound | CC50 [1, 6] [µM] | CC50 at 24 h (MTT cell viability assay; MRC-5 lung fibroblasts, MRC-5) [µM] | CC50 at 24 h (MTT cell viability assay; [7]) [µM] | CC50 [2, 8] [µM] | CC50 [3, 9] [µM] | CC50 [4, 10] [µM] | CC50 [1] [µM] | CC50 [2] [µM] | CC50 [3] [µM] | CC50 [4] [µM] | CC50 [5] [µM] | CC50 (MRC-5 lung fibroblast) [µM] |
| --- | --- | --- | --- | --- | --- | --- | --- | --- | --- | --- | --- | --- |
| N#Cc1cc2cc(F)ccc2oc1=O [2a, 6-Fluoro-2-oxo-2H-chromene-3-carbonitrile] | > 100 | > 100 | > 100 | > 100 | > 100 | > 100 | – | – | – | – | – | – |
| N#Cc1cc2cc(Cl)ccc2oc1=O [2c, 6-Chloro-2-oxo-2H-chromene-3-carbonitrile] | > 100 | > 100 | > 100 | > 100 | > 100 | > 100 | – | – | – | – | – | – |
| CCOC(=O)c1cc2cc(Br)ccc2oc1=O [2d, Ethyl 6-bromo-2-oxo-2H-chromene-3-carboxylate] | > 100 | > 100 | > 100 | > 100 | > 100 | > 100 | – | – | – | – | – | – |
| N#Cc1cc2cc(Br)ccc2oc1=O [2e, 6-Bromo-2-oxo-2H-chromene-3-carbonitrile] | > 100 | > 100 | > 100 | > 100 | > 100 | > 100 | – | – | – | – | – | – |
| CS(=O)(=O)c1cc2cc(Br)ccc2oc1=O [2f, 6-Bromo-3-(methylsulfonyl)-2H-chromen-2-one] | > 100 | > 100 | > 100 | > 100 | > 100 | > 100 | – | – | – | – | – | – |
| CCOC(=O)c1cc2cc(Br)cc(Br)c2oc1=O [2g, Ethyl 6,8-dibromo-2-oxo-2H-chromene-3-carboxylate] | > 100 | > 100 | > 100 | > 100 | > 100 | > 100 | – | – | – | – | – | – |
| CCOC(=O)c1cc2cc(I)cc(I)c2oc1=O [2i, Ethyl 6,8-diiodo-2-oxo-2H-chromene-3-carboxylate] | > 100 | > 100 | > 100 | > 100 | > 100 | > 100 | – | – | – | – | – | – |
| O=C(O)c1cc2cc(I)cc(I)c2oc1=O [2j, 6,8-diiodo-2-oxo-2H-chromene-3-carboxylic Acid] | > 100 | > 100 | > 100 | > 100 | > 100 | > 100 | – | – | – | – | – | – |
| CC[C@@]1(O)C(=O)OCc2c1cc1n(c2=O)Cc2cc3ccccc3nc2-1 [Camptothecin, reference compound] | 0.03 | 0.1 ± 0.03 | 0.01 ± 0.02 | 0.017 ± 0.003 | 0.01 ± 0.02 | – | – | – | – | – | – | – |
| Ethyl 6-fluoro-2-oxo-2H-chromene-3-carboxylate [2b] | – | – | – | – | – | – | > 100 | > 100 | > 100 | > 100 | > 100 | > 100 |
